Target: T1, human IDO1/HEK293 cells (Homo sapiens, UniProt P14902)
T1 construct: expressed in transfected cells
Test: HEK Human IDO-1 cell-based IDO inhibition assay (kynurenine production)
Details: HEK293 cells stably expressing human IDO1, 20 hours incubation, absorbance at 490 nm; read-out: HEK Human IDO-1 Bio Activity (IDO IC50)
Procedure, shortened: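 Stopped with 0.2% TCA, 50 °C 30 min; supernatant mixed with 0.2% Ehrlich reagent, 30 min RT, kynurenine read as absorbance at 490 nm.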

T1 sequence (P14902 whole entry): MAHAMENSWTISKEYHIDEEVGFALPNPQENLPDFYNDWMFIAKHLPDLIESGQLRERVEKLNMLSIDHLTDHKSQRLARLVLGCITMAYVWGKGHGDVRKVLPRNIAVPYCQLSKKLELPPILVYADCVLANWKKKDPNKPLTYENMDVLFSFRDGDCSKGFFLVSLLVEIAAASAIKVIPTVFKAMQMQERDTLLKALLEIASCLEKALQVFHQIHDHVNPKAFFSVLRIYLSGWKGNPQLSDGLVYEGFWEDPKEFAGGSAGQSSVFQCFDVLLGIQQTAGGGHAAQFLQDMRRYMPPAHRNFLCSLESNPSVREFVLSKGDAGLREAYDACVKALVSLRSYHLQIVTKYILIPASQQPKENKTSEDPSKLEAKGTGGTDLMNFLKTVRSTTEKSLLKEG

| Molecule | IC50 [µM] |
| --- | --- |
| Cc1cnc(-c2ccc(C(=O)N[C@H](C)[C@H]3CC[C@@H](c4ccnc5ccc(F)cc54)CC3)cc2)s1 [Example 252, N-((R)-1-((1s,4S)-4-(6-fluoroquinolin-4-yl)cyclohexyl)ethyl)-4-(5-methylthiazol-2-yl)benzamide] | < 0.05 |
| COc1ccc(C(=O)N[C@H](C)[C@H]2CC[C@@H](c3ccnc4ccc(F)cc43)CC2)cc1 [Example 68, N-((R)-1-((1s,4S)-4-(6-fluoroquinolin-4-yl)cyclohexyl)ethyl)-4-methoxybenzamide] | < 0.05 |
| Cc1c(C2CCC(C(C)NC(=O)c3ccc(-c4ccccc4)cc3)CC2)ccnc1F (single isomer, unassigned) [Example 223, N-(1-(4-(2-fluoro-3-methylpyridin-4-yl)cyclohexyl)ethyl)-[1,1′-biphenyl]-4-carboxamide] | < 0.05 |
| CCC(NC(=O)c1ccc(C#N)cc1)C1CCC(c2ccnc3ccc(F)cc23)CC1 (single isomer, unassigned) [Example 165b, 4-Cyano-N-(1-(4-(6-fluoroquinolin-4-yl)cyclohexyl)propyl)benzamide] | < 0.05 |
| CCC(NC(=O)c1ccc(Cl)cc1)C1CCC(c2cccc(C(F)F)n2)CC1 (single isomer, unassigned) [Example 231e, 4-chloro-N-(1-(4-(6-(difluoromethyl)pyridin-2-yl)cyclohexyl)propyl)benzamide] | < 0.05 |
| O=C(N[C@H]1CC[C@H](c2ccnc3ccc(F)cc32)CC1)c1ccc(Cl)cc1 [Example 146, 4-chloro-N-(trans-4-(6-fluoroquinolin-4-yl)cyclohexyl)benzamide] | < 2 |
| C[C@@H](NC(=O)c1ccc(-c2cnco2)cc1)[C@H]1CC[C@@H](c2ccnc3ccc(F)cc32)CC1 [Example 250, N-((R)-1-((1s,4S)-4-(6-fluoroquinolin-4-yl)cyclohexyl)ethyl)-4-(oxazol-5-yl)benzamide] | < 0.05 |
| Cc1cc(C2CCC(C(C)NC(=O)c3ccc(Cl)cc3)CC2)ccn1 (single isomer, unassigned) [Example 157d, 4-Chloro-N-(1-(4-(2-methylpyridin-4-yl)cyclohexyl)ethyl) Benzamide] | < 2 |
| COc1nc(-c2ccc(C(=O)N[C@H](C)[C@H]3CC[C@@H](c4ccnc5ccc(F)cc54)CC3)cc2)cs1 [Example 241, N-((R)-1-((1s,4S)-4-(6-fluoroquinolin-4-yI)cyclohexyl)ethyl)-4-(2-methoxythiazol-4-yl)benzamide] | < 0.05 |
| C[C@@H](NC(=O)c1ccc(-n2ccnc2)cc1)[C@H]1CC[C@@H](c2ccnc3ccc(F)cc32)CC1 [Example 196, N-((R)-1-(cis-4-(6-fluoroquinolin-4-yl)cyclohexyl)ethyl)-4-(1H-imidazol-1-yl)benzamide] | < 0.05 |
| COc1cccc(C(=O)N[C@H](C)[C@H]2CC[C@@H](c3ccnc4ccc(F)cc43)CC2)c1 [Example 53, N-((R)-1-((1s,4S)-4-(6-fluoroquinolin-4-yl)cyclohexyl)ethyl)-3-methoxybenzamide] | < 0.05 |
| Cc1nccc(OC2CCC(C(C)NC(=O)c3ccc(F)cc3)CC2)c1Cl (racemic) [Example 208] | < 0.25 |
| C[C@@H](NC(=O)c1ccc(Cl)c(Cl)c1)[C@H]1CC[C@@H](c2ccnc3ccc(F)cc32)CC1 [Example 59, 3,4-dichloro-N-((R)-1-((1s,4S)-4-(6-fluoroquinolin-4-yl)cyclohexyl)ethyl)benzamide] | < 0.05 |
| C[C@@H](NS(=O)(=O)c1cccc(Cl)c1)[C@H]1CC[C@@H](c2ccnc3ccc(F)cc32)CC1 [Example 44, 3-chloro-N-((R)-1-((1s,4S)-4-(6-fluoroquinolin-4-yl)cyclohexyl)ethyl)benzenesulfonamide] | < 0.05 |
| CC[C@H](NC(=O)c1ccc(Cl)cc1)[C@H]1CC[C@@H](c2cnc3ccccc3c2)CC1 (single isomer, unassigned) [Example 203b] | < 0.25 |
| Cc1ccc(C(=O)N[C@H](C)[C@H]2CC[C@@H](c3ccnc4ccc(F)cc43)CC2)cc1 [Example 51, N-((R)-1-((1s,4S)-4-(6-fluoroquinolin-4-yl)cyclohexyl)ethyl)-4-methylbenzamide] | < 0.05 |
| C[C@@H](NC(=O)c1ccccc1F)[C@H]1CC[C@@H](c2ccnc3ccc(F)cc32)CC1 [Example 54, 2-fluoro-N-((R)-1-((1s,4S)-4-(6-fluoroquinolin-4-yl)cyclohexyl)ethyl)benzamide] | < 0.05 |
| CC[C@@H](NC(=O)c1ccc(Cl)cc1)[C@H]1CC[C@H](c2cnc3ccccc3c2)CC1 (single isomer, unassigned) [Example 203c] | < 0.05 |
| C[C@@H](NC(=O)c1ccc(-c2ccccc2)cc1)[C@H]1CC[C@@H](c2ccnc3ccc(F)cc32)CC1 [Example 70, N—((R)-1-((1s,4S)-4-(6-fluoroquinolin-4-yl)cyclohexyl)ethyl)-[1,1′-biphenyl]-4-carboxamide] | < 0.05 |
| O=C(Nc1ccc(-c2ccccc2)cc1)N1CCN(c2ccnc3ccc(F)cc23)CC1 [Example 84, N-([1,1′-Biphenyl]-4-yl)-4-(6-fluoroquinolin-4-yl)piperazine-1-carboxamide] | < 2 |
| O=C(NCC1CCN(c2ccnc3ccc(F)cc23)CC1)c1ccc(F)cc1 [Example 89] | < 0.25 |
| CC(NC(=O)c1ccc(Cl)cc1)C1CCC(c2ccc(C(F)(F)F)nc2)CC1 (single isomer, unassigned) [Example 219, 4-chloro-N-(1-(4-(6-(trifluoromethyl)pyridin-3-yl)cyclohexyl)ethyl)benzamide] | < 0.25 |
| C[C@@H](NS(=O)(=O)c1ccccc1Cl)[C@H]1CC[C@@H](c2ccnc3ccc(F)cc32)CC1 [Example 42, 2-chloro-N-((R)-1-((1s,4S)-4-(6-fluoroquinolin-4-yl)cyclohexyl)ethyl)benzenesulfonamide] | < 2 |
| (R)-1-(cis-4-(6-fluoroquinolin-4-yl)cyclohexyl)-N-methylethanamine [Example 194] | < 0.05 |
| Cc1ccc(C(=O)NC(C)C2CCC(Oc3ccnc(C)c3Cl)CC2)cc1 (racemic) [Example 210] | < 0.25 |
| COc1ccc(-c2ccc(C(=O)N[C@H](C)[C@H]3CC[C@@H](c4ccnc5ccc(F)cc54)CC3)cc2)cn1 [Example 245, N-((R)-1-((1s,4S)-4-(6-fluoroquinolin-4-yl)cyclohexyl)ethyl)-4-(6-methoxypyridin-3-yl)benzamide] | < 0.05 |
| CC(NC(=O)c1ccc(Cl)cc1)C1CCC(c2ccc(C(F)(F)F)nc2)CC1 (stereo not drawn) [Example 216, 4-chloro-N-(1-(4-(6-(trifluoromcthyr)pyridin-3-yl)cyclohexyl)ethyl)benzamide] | < 0.25 |
| C[C@@H](NC(=O)c1ccccn1)[C@H]1CC[C@@H](c2ccnc3ccc(F)cc32)CC1 [Example 67, N-((R)-1-((1s,4S)-4-(6-fluoroquinolin-4-yl)cyclohexyl)ethyl)picolinamide] | < 0.05 |
| CC(NC(=O)c1ccc(Cl)cc1)C1CCC(c2ccc(C(F)(F)F)nc2)CC1 (single isomer, unassigned) [Example 220, 4-chloro-N-(1-(4-(6-(trifluoromethyl)pyridin-3-yl)cyclohexyl)ethyl)benzamide] | < 0.25 |
| C[C@@H](NC(=O)c1ccc(C(F)(F)F)cc1)[C@H]1CC[C@@H](c2ccnc3ccc(F)cc32)CC1 [Example 249, N-((R)-1-((1s,4S)-4-(6-fluoroquinolin-4-yl)cyclohexyl)ethyl)-4-(trifluoromethyl)benzamide] | < 0.05 |

Source: patent publication US20180325889A1, “IMMUNOREGULATORY AGENTS” (FLEXUS BIOSCIENCES, INC., priority 2014, published 2018)
